Measured values from PMC6627438, “Terrosamycins A and B, Bioactive Polyether Ionophores from Streptomyces sp. RKND004 from Prince Edward Island Sediment” (Marine Drugs, 2019).
Where two headings read alike, the source gives them in different places.

Experiments:
[1] = test system: vancomycin resistant E. faecium EF379 (VRE); test: Antimicrobial assay (OD600 growth, CLSI microdilution), VRE; assay type: cell-based, Enterococcus faecium; settings: 22 h, read-out: IC50 VRE
Method: The antimicrobial activities of 1 and 2 were evaluated against a panel of pathogens. For comparison, three known polyether ionophore standards were selected and tested in parallel. […] The compounds were each tested against the Gram-positive pathogens methicillin-resistant Staphyloccocus aureus (MRSA), vancomycin resistant Enterococcus faecium (VRE) and Staphylococcus warneri, Gram-negative pathogens Pseudomonas aeruginosa and Proteus vulgaris, and the yeast Candida albicans.
The antimicrobial activities of 1–5 were evaluated using a panel of human pathogens including methicillin-resistant S. aureus ATCC 33591 (MRSA), vancomycin resistant E. faecium EF379 (VRE), S. warneri ATCC 17917, P. aeruginosa ATCC 14210, P. vulgaris ATCC 12454 and C. albicans ATCC 14035. Assays were performed according to Clinical Laboratory Standards Institute testing standards in a 96-well plate and in triplicate. […] A Thermo Scientific Varioskan Flash plate reader was used to determine cell growth by measuring the optical density at 600 nm at time zero and after incubation at 37 °C for 22 h. The change in OD600 was calculated, percentages of microorganism survival were compared to the vehicle control wells and IC50 values were determined using GraphPad Prism 6.0 (GraphPad Software, San Diego, CA, USA). Control antibiotics used were vancomycin for MRSA and S. warneri, rifampicin for VRE, gentamycin for P. aeruginosa, ciprofloxacin for P. vulgaris and nystatin for C. albicans.

S. warneri ATCC 17917 = test: Antimicrobial assay (OD600 growth, CLSI microdilution), S. warneri; assay type: cell-based; settings: Staphylococcus warneri, read-out: IC50 S. warneri
Method: (§1) The antimicrobial activities of 1 and 2 were evaluated against a panel of pathogens. For comparison, three known polyether ionophore standards were selected and tested in parallel. […] Furthermore, salinomycin and monensin are currently approved and marketed as antibiotics and anticoccidial agents for cattle and poultry. The compounds were each tested against the Gram-positive pathogens methicillin-resistant Staphyloccocus aureus (MRSA), vancomycin resistant Enterococcus faecium (VRE) and Staphylococcus warneri, Gram-negative pathogens Pseudomonas aeruginosa and Proteus vulgaris, and the yeast Candida albicans. No activity was observed against P. aeruginosa, P. vulgaris or C. albicans at the highest concentration tested (128 μg/mL).
(§2) The antimicrobial activities of 1–5 were evaluated using a panel of human pathogens including methicillin-resistant S. aureus ATCC 33591 (MRSA), vancomycin resistant E. faecium EF379 (VRE), S. warneri ATCC 17917, P. aeruginosa ATCC 14210, P. vulgaris ATCC 12454 and C. albicans ATCC 14035. Assays were performed according to Clinical Laboratory Standards Institute testing standards in a 96-well plate and in triplicate. Compounds 1–5 were dissolved in sterile 20% DMSO and serially diluted creating a range of twelve concentrations between 128 μg/mL and 0.0625 μg/mL. A Thermo Scientific Varioskan Flash plate reader was used to determine cell growth by measuring the optical density at 600 nm at time zero and after incubation at 37 °C for 22 h. The change in OD600 was calculated, percentages of microorganism survival were compared to the vehicle control wells and IC50 values were determined using GraphPad Prism 6.0 (GraphPad Software, San Diego, CA, USA). Control antibiotics used were vancomycin for MRSA and S. warneri, rifampicin for VRE, gentamycin for P. aeruginosa, ciprofloxacin for P. vulgaris and nystatin for C. albicans.

[2] = test system: Cercopithecus aethiops kidney epithelial cells (Vero, ATCC CCL-81); test: Cytotoxicity assay (alamarBlue), Vero; assay type: cell-based; settings: Chlorocebus sabaeus, 24 h, read-out: IC50 Vero
Method: (§3) In light of this information, 1, 2 and the known polyether standards were tested against a human breast adenocarcinoma cell line (HTB-26) and a human invasive breast ductal carcinoma cell line (MCF-7). The compounds were also tested in a healthy human foreskin fibroblast cell line (BJ) and healthy Cercopithecus aethiops kidney epithelial cells (Vero) as an evaluation of cytotoxicity toward healthy cells.
(§4) The cytotoxicities of compounds 1–5 were evaluated using two healthy cell lines—human foreskin fibroblast cells (BJ, ATCC CRL-2522) and Cercopithecus aethiops kidney epithelial cells (Vero, ATCC CCL-81)—as well as two cancer cell lines—human breast adenocarcinoma cells (ATCC HTB-26) and human invasive breast ductal carcinoma cells (ATCC MCF-7). Each cell line was grown and maintained in 15 mL of Eagle’s Minimal Essential Medium in T75 cm^2 cell culture flasks with the exception of HTB-26 cells which were grown in Dulbecco’s Modified Eagle’s Medium/Nutrient Mixture F-12 Ham. All growth media were supplemented with 10% fetal bovine serum, […] penicillin and 0.1 mg/mL streptomycin; the growth medium for MCF-7 cells was also supplemented with 0.01 mg/mL human recombinant insulin. All cell cultures were incubated at 37 °C in a humidified atmosphere with 5% CO2 and culture media was refreshed every two to three days. The cells were not allowed to exceed 80% confluency. At 80% confluency, the cells were counted and diluted in their respective growth medium without addition of antibiotics. Aliquots of 90 μL were added to a microwell plate at a density of 1 × 10^4 cells/well for Vero and HTB-26 cells and 5 × 10^3 cells/well for BJ fibroblast and MCF-7 cells. The plates were incubated at 37 °C with 5% CO2 for 24 h to allow cells to adhere to the plates prior to treatment. The vehicle DMSO was used to dissolve 1 and 2 and was present at a final concentration of 1% in each of the wells. A dilution series was prepared for each cell line using the respective growth medium and 10 μL aliquots of each was added to the respective plate in concentrations ranging from 128 μg/mL to 1 μg/mL in triplicate. Positive control wells contained only the growth medium and DMSO, negative control wells contained the growth medium, DMSO and cells and positive treated controls contained the growth medium, cells and a concentration range of either zinc pyrithione (BJ fibroblast), phenoxyethanol (Vero), or doxorubicin (HTB-26 and MCF-7). All plates were incubated at 37 °C with 5% CO2 for 24 h (BJ fibroblast, Vero) or 72 h (HTB-26, MCF-7). Following incubation, alamarBlue was added to each well at a concentration of 10% (v/v). Fluorescence was measured at 560 nm excitation and 590 nm emission using a Thermo Scientific Varioskan Flash plate reader at time zero and 4 h after treatment with alamarBlue. The change in 590 nm emission reading was used to calculate percent cell viability after each treatment relative to the negative controls. The IC50 values of compounds 1–5 for each cell line were calculated using GraphPad Prism 6.0.

[3] = test system: human invasive breast ductal carcinoma cells (ATCC MCF-7); test: Cytotoxicity assay (alamarBlue), MCF-7; assay type: cell-based; settings: read-out: IC50 MCF-7
Method: as §3, §4

[4] = test system: methicillin-resistant S. aureus ATCC 33591 (MRSA); test: Antimicrobial assay (OD600 growth, CLSI microdilution), MRSA; assay type: cell-based, Staphyloccocus aureus; settings: Staphylococcus aureus, 22 h, read-out: IC50 MRSA
Method: as §1, §2

[5] = test system: human foreskin fibroblast cells (BJ, ATCC CRL-2522); test: Cytotoxicity assay (alamarBlue), BJ; assay type: cell-based; settings: 24 h, read-out: IC50 BJ
Method: as §3, §4

[6] = test system: human breast adenocarcinoma cells (ATCC HTB-26); test: Cytotoxicity assay (alamarBlue), HTB-26; assay type: cell-based; settings: read-out: IC50 HTB-26
Method: as §3, §4

[7] = average ± SE (n = 6), 37 °C, OD600
[8] = ATCC17917, average ± SE (n = 6), 37 °C, 22 h, OD600
[9] = average ± SE (n = 3), alamarBlue, healthy cell line
[10] = MCF7, average ± SE (n = 3), 72 h, alamarBlue, breast cancer cell line
[11] = HTB26, average ± SE (n = 3), 72 h, alamarBlue, breast cancer cell line

| Compound | IC50 [1, 7] [µM] | IC50 (S. warneri ATCC 17917; ATCC17917, 22 h) [µM] | IC50 [2] [µM] | IC50 ([3]; MCF7, 72 h) [µM] | IC50 [1] [µM] | IC50 [4] [µM] | IC50 [5] [µM] | IC50 ([6]; HTB26, 72 h) [µM] | IC50 (S. warneri ATCC 17917; [8]) [µM] | IC50 [2, 9] [µM] | IC50 [3, 10] [µM] | IC50 [4, 7] [µM] | IC50 [5, 9] [µM] | IC50 [6, 11] [µM] |
| --- | --- | --- | --- | --- | --- | --- | --- | --- | --- | --- | --- | --- | --- | --- |
| CO[C@H]1/C=C/O[C@@]2(C)Oc3c(C)c(O)c4c(O)c(c(/C=N/N5CCN(C)CC5)c(O)c4c3C2=O)NC(=O)/C(C)=C\C=C\[C@H](C)[C@H](O)[C@@H](C)[C@@H](O)[C@@H](C)[C@H](OC(C)=O)[C@@H]1C [rifampicin control, rifampicin] | 1.1 ± 0.1 | – | – | – | – | – | – | – | – | – | – | – | – | – |
| C[C@@H]1C[C@H](C)[C@@](O)(C[C@H]2O[C@@](O)(C[C@@H](O)[C@@H](C)C(=O)[C@](C)(O)[C@@H]3CC[C@@](C)([C@H]4CC[C@@](C)(O)[C@H](C)O4)O3)[C@H](C)C[C@@H]2C)O[C@H]1C[C@H]1CC[C@H](C)[C@@H]([C@@H](C)C(=O)O)O1 [terrosamycin A (1), terrosamycin A] | – | 0.9 ± 0.3 | 36 ± 6 | 6 ± 1 | 0.58 ± 0.04 | 0.5 ± 0.2 | 79 ± 5 | 10.1 ± 0.6 | – | – | – | – | – | – |
| CO[C@@H]1C[C@@H](C[C@H]2CC[C@H](C)[C@H]([C@@H](C)C(=O)O)O2)O[C@]2(O[C@](C)([C@H]3CC[C@@](C)([C@@H]4O[C@@H]([C@H]5O[C@@](O)(CO)[C@H](C)C[C@@H]5C)C[C@@H]4C)O3)C[C@H]2C)[C@@H]1C [nigericin (5), nigericin] | 0.5 ± 0.1 | – | – | – | – | – | – | – | 0.3 ± 0.1 | 61 ± 8 | 9 ± 3 | 0.2 ± 0.1 | 221 ± 10 | 13 ± 2 |
| CN[C@H](CC(C)C)C(=O)N[C@H]1C(=O)N[C@@H](CC(N)=O)C(=O)N[C@H]2C(=O)N[C@H]3C(=O)N[C@H](C(=O)N[C@H](C(=O)O)c4cc(O)cc(O)c4-c4cc3ccc4O)[C@H](O)c3ccc(c(Cl)c3)Oc3cc2cc(c3O[C@@H]2O[C@H](CO)[C@@H](O)[C@H](O)[C@H]2O[C@H]2C[C@](C)(N)[C@H](O)[C@H](C)O2)Oc2ccc(cc2Cl)[C@H]1O [vancomycin control, vancomycin] | – | 0.53 ± 0.01 | – | – | – | 0.8 ± 0.1 | – | – | – | – | – | – | – | – |
| CC[C@@]1([C@@H]2O[C@@H]([C@H]3O[C@@](O)(CO)[C@H](C)C[C@@H]3C)C[C@@H]2C)CC[C@H]([C@]2(C)CC[C@]3(C[C@H](O)[C@@H](C)[C@@H]([C@@H](C)[C@@H](OC)[C@H](C)C(=O)O)O3)O2)O1 [monensin (4), monensin] | 8 ± 5 | – | – | – | – | – | – | – | 2 ± 0.2 | 10000 | 7 ± 2 | 1.5 ± 0.1 | 245 ± 11 | 10 ± 1 |
| CO[C@@]1(C[C@@H](O)[C@@H](C)C(=O)[C@](C)(O)[C@@H]2CC[C@@](C)([C@H]3CC[C@@](C)(O)[C@H](C)O3)O2)O[C@H](C[C@@]2(OC)O[C@@H](C[C@H]3CC[C@H](C)[C@@H]([C@@H](C)C(=O)O)O3)[C@H](C)C[C@@H]2C)[C@@H](C)C[C@H]1C [terrosamycin B (2), terrosamycin B] | – | 0.7 ± 0.1 | 93 ± 4 | 3.9 ± 0.4 | 0.5 ± 0.1 | 0.34 ± 0.04 | 267 ± 28 | 6 ± 1 | – | – | – | – | – | – |
| COc1cccc2c1C(=O)c1c(O)c3c(c(O)c1C2=O)C[C@@](O)(C(=O)CO)C[C@@H]3O[C@H]1C[C@H](N)[C@H](O)[C@H](C)O1 [doxorubicin control, doxorubicin] | – | – | – | – | – | – | – | – | – | – | 0.8 ± 0.1 | – | – | 4 ± 2 |
| CC[C@@H](C(=O)[C@@H](C)[C@@H](O)[C@H](C)[C@@H]1O[C@@H]([C@@H](CC)C(=O)O)CC[C@@H]1C)[C@H]1O[C@]2(C=C[C@@H](O)[C@]3(CC[C@@](C)([C@H]4CC[C@](O)(CC)[C@H](C)O4)O3)O2)[C@H](C)C[C@@H]1C [salinomycin (3), salinomycin] | – | – | – | – | 0.8 ± 0.2 | 0.4 ± 0.1 | – | – | 0.9 ± 0.2 | 78 ± 22 | 10 ± 3 | – | 196 ± 3 | 13 ± 1 |
